The text below walks through data of patent US6723724B2, “Isoxazolylalkylpiperazine derivatives having selective biological activity at dopamine D3 or D4 receptor, and preparation thereof” (priority 2000, dated 2004).

One assay concerns the target dopamine D3 receptor (Homo sapiens, UniProt P35462). Put plainly: Binding affinity to cloned human dopamine receptors (radioligand displacement), D3. The settings on record: for Affinity to Dopamine Receptors (% Inhibition) D3: 1 µM test compound. How it is done: (§1) Experimental Example: Test for the Binding Affinity to Dopamine Receptor
(§2) Binding affinities of the compounds for dopamine receptors were determined indirectly by their ability to displace radiolabeled ligand from cloned human dopamine receptors. Compounds were incubated in receptor suspension to compete with the radiolabeled ligand. The receptor-bound radiolabeled ligand was separated by filtering through Wallac glass fiber filtermat (GF/C) using Inotech cell harvester of 96-well format. The radioactivity bound to filter was counted by Micro-P counter (Wallac).
(§3) The aliquots of cloned human dopamine receptors stored at −70° C. were suspended in assay buffer and the content of receptor in each aliquot was determined by Bio-Rad DC protein assay kit to give an optimal protein (receptor) concentration obtained by preliminary receptor binding assay. Receptor suspension adjusted to optimal concentration was aliquoted in proper volume for assay and stored at −70° C. Binding assays of every compound were performed in duplicate and each different buffer solution was used for optimal assay with each subtype of dopamine receptors. Receptor binding assays were carried out in 96-well plates. Receptor suspension of 100 was incubated at 27° C. for 30-60 min in a final volume of 0.25 ml reaction mixture containing 50 of hot-ligand and 10 of test compound.
(§4) After incubation, the reaction mixture was washed with ice-cold 50 mM Tris-acetate buffer by rapid filtration using a Inotech cell harvester (Inotech, Switzerland) through Whatman GF/C glass fiber filter presoaked in the assay buffer. The filter was covered with MeltiLex, sealed in a sample bag followed by drying in the microwave, and counted by MicroBeta Plus (Wallac, Finland) at a counting efficiency of 30-40%.
Background: In a radioligand displacement assay an active substance lowers the binding of a labelled ligand.

Another assay deals with dopamine D1 receptor (Homo sapiens, UniProt P21728). The assay is described as follows: Binding affinity to cloned human dopamine receptors (radioligand displacement), D1. As to conditions: for Affinity to Dopamine Receptors (% Inhibition) D1: 1 µM test compound. How it is done: as §1, §2, §3, §4
The target in another assay is T1, dopamine D4 receptor (Homo sapiens, UniProt P21917).
T1 sequence (P21917 1-419): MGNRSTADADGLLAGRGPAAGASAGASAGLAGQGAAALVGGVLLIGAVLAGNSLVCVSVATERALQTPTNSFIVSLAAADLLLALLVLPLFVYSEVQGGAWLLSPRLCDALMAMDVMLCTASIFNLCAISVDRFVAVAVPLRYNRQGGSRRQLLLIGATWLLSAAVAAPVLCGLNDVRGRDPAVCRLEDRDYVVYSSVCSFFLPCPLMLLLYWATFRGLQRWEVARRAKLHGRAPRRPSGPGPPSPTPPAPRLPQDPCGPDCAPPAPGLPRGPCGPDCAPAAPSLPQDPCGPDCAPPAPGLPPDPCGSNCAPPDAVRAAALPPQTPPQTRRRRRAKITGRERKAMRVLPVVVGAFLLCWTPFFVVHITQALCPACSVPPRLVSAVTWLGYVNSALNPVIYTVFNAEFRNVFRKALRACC
The assay is described as follows: Binding affinity to cloned human dopamine receptors (radioligand displacement), D4. As to conditions: for Affinity to Dopamine Receptors (% Inhibition) D4: 1 µM test compound. How it is done:
as §1, §2, §3, §4

A further assay has as its target dopamine D2 receptor (Homo sapiens, UniProt P14416). Put plainly: Binding affinity to cloned human dopamine receptors (radioligand displacement), D2. The settings on record: for Affinity to Dopamine Receptors (% Inhibition) D2: 1 µM test compound. How it is done: as §1, §2, §3, §4

Sequence of dopamine D2 receptor (P14416 whole entry): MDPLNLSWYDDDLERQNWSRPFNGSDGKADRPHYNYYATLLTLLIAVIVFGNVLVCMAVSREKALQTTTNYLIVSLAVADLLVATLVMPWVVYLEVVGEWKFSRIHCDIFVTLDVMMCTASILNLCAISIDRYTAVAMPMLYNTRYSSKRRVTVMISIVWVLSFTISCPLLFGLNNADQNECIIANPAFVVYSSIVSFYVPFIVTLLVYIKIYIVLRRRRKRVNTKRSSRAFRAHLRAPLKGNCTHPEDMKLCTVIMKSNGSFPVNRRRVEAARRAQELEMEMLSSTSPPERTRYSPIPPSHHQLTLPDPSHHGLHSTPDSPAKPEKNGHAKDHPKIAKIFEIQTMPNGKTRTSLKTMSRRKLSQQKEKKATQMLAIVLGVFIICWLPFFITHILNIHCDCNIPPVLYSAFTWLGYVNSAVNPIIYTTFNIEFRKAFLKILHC
Sequence of dopamine D1 receptor (P21728 whole entry): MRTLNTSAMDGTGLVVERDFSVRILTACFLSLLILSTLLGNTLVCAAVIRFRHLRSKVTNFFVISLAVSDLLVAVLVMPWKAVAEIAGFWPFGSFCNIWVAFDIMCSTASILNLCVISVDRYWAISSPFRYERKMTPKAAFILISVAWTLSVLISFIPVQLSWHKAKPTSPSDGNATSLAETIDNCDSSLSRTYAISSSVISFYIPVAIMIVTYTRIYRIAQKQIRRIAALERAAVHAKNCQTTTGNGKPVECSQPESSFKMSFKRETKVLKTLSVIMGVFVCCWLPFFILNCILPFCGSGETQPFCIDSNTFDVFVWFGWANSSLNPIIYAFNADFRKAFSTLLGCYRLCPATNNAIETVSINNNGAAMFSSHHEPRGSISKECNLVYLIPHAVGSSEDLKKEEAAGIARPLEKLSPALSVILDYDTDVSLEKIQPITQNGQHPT
Sequence of dopamine D3 receptor (P35462 whole entry): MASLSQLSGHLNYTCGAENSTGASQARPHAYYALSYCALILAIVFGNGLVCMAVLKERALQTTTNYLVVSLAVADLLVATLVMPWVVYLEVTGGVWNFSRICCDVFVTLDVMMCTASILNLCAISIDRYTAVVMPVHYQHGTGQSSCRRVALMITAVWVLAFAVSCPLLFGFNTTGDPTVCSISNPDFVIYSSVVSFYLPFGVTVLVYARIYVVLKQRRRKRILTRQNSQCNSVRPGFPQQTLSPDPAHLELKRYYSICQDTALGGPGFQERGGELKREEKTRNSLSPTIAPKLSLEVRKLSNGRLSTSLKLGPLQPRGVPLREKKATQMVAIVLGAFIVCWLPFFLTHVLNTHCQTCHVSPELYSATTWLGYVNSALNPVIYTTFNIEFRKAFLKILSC

As a reminder, the IC50 is the concentration that gives 50% inhibition. Read a high IC50 as weaker potency. On to `COc1ccc(-c2cc(CCCCN3CCN(c4ccccc4OC)CC3)on2)cc1OC` [Compound No. 39], for which, at dopamine D3 receptor, the IC50 was 0.012 µM and the “Affinity to Dopamine Receptors (% Inhibition) D3” value (“Affinity … (% Inhibition) D3” below) was determined as 105.1%. In addition, at dopamine D1 receptor, the IC50 was 2.88 µM and the “Affinity to Dopamine Receptors (% Inhibition) D1” value (shortened to “Affinity … (% Inhibition) D1”) is on record as 23.9%. Also, on dopamine D4 receptor, the IC50 stood at 0.395 µM and the “Affinity to Dopamine Receptors (% Inhibition) D4” value (from here on “Affinity … (% Inhibition) D4”) turned out to be 80.1%. On dopamine D2 receptor, the IC50 turned out to be 1.9 µM and the “Affinity to Dopamine Receptors (% Inhibition) D2” value (from here on “Affinity … (% Inhibition) D2”) is listed as 23%.
As to `C(=C\c1cc(CCCCN2CCN(c3ccccc3)CC2)on1)/c1ccccc1` [Compound No. 36], the “Affinity … (% Inhibition) D3” value on dopamine D3 receptor was determined as 107.9%. For the same compound, the “Affinity … (% Inhibition) D1” value on dopamine D1 receptor is 75.2%. For the same compound, the “Affinity … (% Inhibition) D4” value on dopamine D4 receptor is 69%. Besides, the “Affinity … (% Inhibition) D2” value at dopamine D2 receptor came out at 22.2%.
Regarding `CCOc1ccccc1N1CCN(CCCc2cc(-c3ccc(F)cc3)no2)CC1` [Compound No. 20], the “Affinity … (% Inhibition) D3” value on dopamine D3 receptor amounted to 89.4%. Further, the “Affinity … (% Inhibition) D4” value on dopamine D4 receptor is 86.2%. For the same compound, the “Affinity … (% Inhibition) D2” value on dopamine D2 receptor worked out at 47.9%.
As for `C(=C\c1cc(CCCCN2CCN(C(c3ccccc3)c3ccccc3)CC2)on1)/c1ccccc1` [Compound No. 29], on dopamine D3 receptor, the “Affinity … (% Inhibition) D3” value was 102.4%. Besides, the “Affinity … (% Inhibition) D1” value at dopamine D1 receptor stood at 32.6%. In addition, the “Affinity … (% Inhibition) D4” value at dopamine D4 receptor amounted to 31.6%. Also, on dopamine D2 receptor, the “Affinity … (% Inhibition) D2” value is reported as 0.0%.
As for `CCOc1ccccc1N1CCN(CCCCc2cc(-c3cccs3)no2)CC1` [Compound No. 53], at dopamine D4 receptor, the IC50 came to 0.019 µM and the “Affinity … (% Inhibition) D4” value was determined as 93.4%. Moreover, on dopamine D2 receptor, the 50% inhibitory concentration (IC50) turned out to be 0.88 µM and the “Affinity … (% Inhibition) D2” value turned out to be 54.1%.
For the compound `c1ccc(N2CCN(CCCCc3cc(-c4cccs4)no3)CC2)cc1` [Compound No. 33], on dopamine D3 receptor, the IC50 is 0.035 µM and the “Affinity … (% Inhibition) D3” value is on record as 104.4%. In addition, on dopamine D1 receptor, the IC50 turned out to be 0.31 µM and the “Affinity … (% Inhibition) D1” value was found to be 52.9%. For the same compound, on dopamine D4 receptor, the IC50 amounted to 0.18 µM and the “Affinity … (% Inhibition) D4” value came out at 62.4%. In addition, on dopamine D2 receptor, the IC50 worked out at 18.8 µM and the “Affinity … (% Inhibition) D2” value is 6.7%.
In the case of `CCOc1ccccc1N1CCN(CCCCc2cc(-c3ccccc3)no2)CC1` [Compound No. 54], at dopamine D3 receptor, the IC50 is 0.021 µM and the “Affinity … (% Inhibition) D3” value was 101.8%. At dopamine D4 receptor, the IC50 turned out to be 0.052 µM and the “Affinity … (% Inhibition) D4” value was 77.6%. Further, at dopamine D2 receptor, the IC50 was 1.55 µM and the “Affinity … (% Inhibition) D2” value is 29.9%.
`COc1ccc(-c2cc(CCCN3CCN(c4ccccc4)CC3)on2)c(OC)c1` [Compound No. 32]: at dopamine D3 receptor, the IC50 was 0.038 µM and the “Affinity … (% Inhibition) D3” value amounted to 100.1%. In addition, at dopamine D1 receptor, the IC50 is 0.11 µM and the “Affinity … (% Inhibition) D1” value turned out to be 70%. Besides, at dopamine D4 receptor, the half-inhibitory concentration (IC50) came to 0.117 µM and the “Affinity … (% Inhibition) D4” value turned out to be 74.9%. For the same compound, at dopamine D2 receptor, the IC50 stood at 9.98 µM and the “Affinity … (% Inhibition) D2” value came to 10.6%.
In the case of `Fc1ccccc1N1CCN(CCCCc2cc(/C=C/c3ccccc3)no2)CC1` [Compound No. 46], on dopamine D1 receptor, the “Affinity … (% Inhibition) D1” value was 75.8%. On dopamine D4 receptor, the IC50 turned out to be 0.089 µM and the “Affinity … (% Inhibition) D4” value was found to be 45.1%. In addition, on dopamine D2 receptor, the IC50 was 2.66 µM and the “Affinity … (% Inhibition) D2” value was determined as 15.6%.
In the case of `COc1ccccc1N1CCN(CCCCc2cc(-c3ccc(F)cc3)no2)CC1` [Compound No. 37], the “Affinity … (% Inhibition) D3” value on dopamine D3 receptor is given as 112.5%. For the same compound, the “Affinity … (% Inhibition) D1” value at dopamine D1 receptor is 52.2%. Also, at dopamine D4 receptor, the “Affinity … (% Inhibition) D4” value worked out at 91.3%. In addition, on dopamine D2 receptor, the “Affinity … (% Inhibition) D2” value came to 57.3%.
